PubChem BioAssay (NCI)
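Five concentrations, 48 hours, 96-well plates. TGI is the concentration that stops growth completely.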

Legend:
Test in all cases: inhibition of tumour cell growth, NCI panel, 48 h
[1] = tested on: 786-0 renal
[2] = tested on: A549 NSCLC
[3] = tested on: ACHN renal
[4] = tested on: CAKI-1 renal
[5] = tested on: COLO 205 colon
[6] = tested on: DLD-1 colon
[7] = tested on: DMS 114 small cell lung
[8] = tested on: DMS 273 small cell lung
[9] = tested on: HCC-2998 colon
[10] = tested on: HCT-116 colon
[11] = tested on: HCT-15 colon
[12] = tested on: HOP-62 NSCLC
[13] = tested on: HT29 colon
[14] = tested on: IGROV1 ovarian
[15] = tested on: K-562 leukemia
[16] = tested on: KM12 colon
[17] = tested on: KM20L2 colon
[18] = tested on: LOX IMVI melanoma
[19] = tested on: LXFL 529 NSCLC
[20] = tested on: M14 melanoma
[21] = tested on: M19-MEL melanoma
[22] = tested on: MOLT-4 leukemia
[23] = tested on: NCI-H226 lung
[24] = tested on: NCI-H23 lung
[25] = tested on: NCI-H460 lung
[26] = tested on: NCI-H522 lung
[27] = tested on: OVCAR-3 ovarian
[28] = tested on: OVCAR-4 ovarian
[29] = tested on: OVCAR-5 ovarian
[30] = tested on: OVCAR-8 ovarian
[31] = tested on: RPMI-8226 leukemia
[32] = tested on: RXF 393 renal
[33] = tested on: RXF-631 renal
[34] = tested on: SF-268 CNS
[35] = tested on: SF-295 CNS
[36] = tested on: SF-539 CNS
[37] = tested on: SK-MEL-2 melanoma
[38] = tested on: SK-MEL-28 melanoma
[39] = tested on: SK-MEL-5 melanoma
[40] = tested on: SN12C renal
[41] = tested on: SNB-19 CNS
[42] = tested on: SNB-75 CNS
[43] = tested on: SNB-78 CNS
[44] = tested on: SR leukemia
[45] = tested on: SW-620 colon
[46] = tested on: TK-10 renal
[47] = tested on: U251 CNS
[48] = tested on: UACC-257 melanoma
[49] = tested on: UO-31 renal
[50] = tested on: XF 498 CNS
[51] = tested on: A498 renal
[52] = tested on: CCRF-CEM leukemia
[53] = tested on: HL-60(TB) leukemia
[54] = tested on: HOP-18 NSCLC
[55] = tested on: HOP-92 NSCLC
[56] = tested on: MALME-3M melanoma
[57] = tested on: SK-OV-3 ovarian
[58] = tested on: UACC-62 melanoma
[59] = tested on: EKVX NSCLC

O=C(c1ccccc1)[C@H]1Nc2ccc(Cl)cc2C2c3ccccc3CC21 (some centres not stated) was tested, and the TGI [1] was > 100 µM, the TGI [2] was > 100 µM and the TGI [3] was > 100 µM. The TGI [4] was > 100 µM, the TGI [5] was > 100 µM and the TGI [6] was > 100 µM. For the same compound, the TGI [7] was > 100 µM, the TGI [8] was > 100 µM and the TGI [9] was 83.4 µM. For the same compound, the TGI [10] was > 100 µM, the TGI [11] was > 100 µM and the TGI [12] was > 100 µM. For the same compound, the TGI [13] was > 100 µM, the TGI [14] was > 100 µM and the TGI [15] was > 100 µM. For the same compound, the TGI [16] was > 100 µM, the TGI [17] was > 100 µM and the TGI [18] was > 100 µM. The TGI [19] was > 100 µM, the TGI [20] was > 100 µM and the TGI [21] was > 100 µM. For the same compound, the TGI [22] was > 100 µM, the TGI [23] was > 100 µM and the TGI [24] was > 100 µM. The TGI [25] was > 100 µM, the TGI [26] was > 100 µM and the TGI [27] was 66.1 µM. The TGI [28] was 50.9 µM, the TGI [29] was > 100 µM and the TGI [30] was > 100 µM. The TGI [31] was > 100 µM, the TGI [32] was 45.4 µM and the TGI [33] was > 100 µM. For the same compound, the TGI [34] was > 100 µM, the TGI [35] was 67.5 µM and the TGI [36] was > 100 µM. The TGI [37] was > 100 µM, the TGI [38] was 97 µM and the TGI [39] was 85.2 µM. The TGI [40] was > 100 µM, the TGI [41] was > 100 µM and the TGI [42] was > 100 µM. The TGI [43] was > 100 µM, the TGI [44] was > 100 µM and the TGI [45] was > 100 µM. The TGI [46] was > 100 µM, the TGI [47] was > 100 µM and the TGI [48] was 85.9 µM. For the same compound, the TGI [49] was > 100 µM and the TGI [50] was 72.5 µM.

With CCOC(=O)C1C2CCC(C2)C1(CCl)C(=O)OCC (configuration not stated) the TGI [1] was > 100 µM, the TGI [51] was > 100 µM and the TGI [2] was > 100 µM. For the same compound, the TGI [3] was > 100 µM, the TGI [4] was > 100 µM and the TGI [52] was > 100 µM. For the same compound, the TGI [5] was > 100 µM, the TGI [7] was > 100 µM and the TGI [8] was > 100 µM. For the same compound, the TGI [9] was > 100 µM, the TGI [10] was > 100 µM and the TGI [11] was > 100 µM. For the same compound, the TGI [53] was > 100 µM, the TGI [54] was > 100 µM and the TGI [12] was > 100 µM. For the same compound, the TGI [55] was > 100 µM, the TGI [13] was > 100 µM and the TGI [14] was > 100 µM. The TGI [15] was > 100 µM, the TGI [17] was > 100 µM and the TGI [18] was > 100 µM. The TGI [19] was > 100 µM, the TGI [20] was > 100 µM and the TGI [21] was > 100 µM. The TGI [56] was > 100 µM, the TGI [22] was > 100 µM and the TGI [23] was > 100 µM. For the same compound, the TGI [24] was > 100 µM, the TGI [25] was > 100 µM and the TGI [27] was > 100 µM. For the same compound, the TGI [28] was > 100 µM, the TGI [29] was > 100 µM and the TGI [30] was > 100 µM. For the same compound, the TGI [31] was > 100 µM, the TGI [33] was > 100 µM and the TGI [34] was > 100 µM. The TGI [35] was > 100 µM, the TGI [38] was > 100 µM and the TGI [39] was > 100 µM. For the same compound, the TGI [57] was > 100 µM, the TGI [40] was > 100 µM and the TGI [41] was > 100 µM. The TGI [44] was > 100 µM, the TGI [45] was > 100 µM and the TGI [46] was > 100 µM. For the same compound, the TGI [47] was > 100 µM, the TGI [48] was > 100 µM and the TGI [58] was > 100 µM. The TGI [49] was > 100 µM.

With OCC(O)C(O)C(O)c1nn(-c2ccc(Cl)cc2)c2nc3cc(Cl)c(Cl)cc3nc12 (configuration not stated) the TGI [1] was > 100 µM, the TGI [2] was > 100 µM and the TGI [3] was > 100 µM. For the same compound, the TGI [4] was > 100 µM, the TGI [52] was > 100 µM and the TGI [5] was > 100 µM. For the same compound, the TGI [6] was > 100 µM, the TGI [7] was > 100 µM and the TGI [8] was > 100 µM. The TGI [59] was 67.9 µM, the TGI [9] was > 100 µM and the TGI [10] was > 100 µM. For the same compound, the TGI [53] was > 100 µM, the TGI [54] was > 100 µM and the TGI [12] was 71 µM. For the same compound, the TGI [13] was > 100 µM, the TGI [14] was > 100 µM and the TGI [15] was > 100 µM. The TGI [17] was > 100 µM, the TGI [18] was > 100 µM and the TGI [19] was > 100 µM. The TGI [20] was > 100 µM, the TGI [21] was > 100 µM and the TGI [56] was 71 µM. The TGI [22] was > 100 µM, the TGI [23] was 58.4 µM and the TGI [24] was 85.1 µM. For the same compound, the TGI [25] was > 100 µM, the TGI [26] was > 100 µM and the TGI [27] was > 100 µM. For the same compound, the TGI [28] was > 100 µM, the TGI [29] was > 100 µM and the TGI [30] was > 100 µM. For the same compound, the TGI [31] was > 100 µM, the TGI [32] was 72.4 µM and the TGI [34] was > 100 µM. For the same compound, the TGI [35] was > 100 µM, the TGI [36] was > 100 µM and the TGI [37] was > 100 µM. The TGI [38] was > 100 µM, the TGI [57] was 58.6 µM and the TGI [40] was > 100 µM. The TGI [41] was > 100 µM, the TGI [42] was 11.1 µM and the TGI [43] was 76.9 µM. For the same compound, the TGI [44] was > 100 µM, the TGI [45] was > 100 µM and the TGI [46] was > 100 µM. The TGI [47] was > 100 µM, the TGI [48] was > 100 µM and the TGI [58] was > 100 µM. For the same compound, the TGI [49] was > 100 µM and the TGI [50] was 27.4 µM.
